{"source": "paper PMC5626781", "about": "“A Potent Tartrate Resistant Acid Phosphatase Inhibitor to Study the Function of TRAP in Alveolar Macrophages” (Scientific Reports, 2017)", "key": {"RAW264.7 macrophages [1]": {"system": "RAW264.7 macrophages", "assay": "MTT assay", "assay_type": "cell-based, mouse", "description": "The effect of AubipyOMe and NaAuCl4 on RAW264.7 cell growth was assessed with a classical MTT assay. The IC50 values were calculated using nonlinear curve fitting with a variable slope in Graphpad Prism 6 (Graphpad Software) An average IC50 of four independent experiments was calculated.\nAubipyOMe was tested in the range 0-40 μM with MPI cell lysates or pooled lung tissue lysates from COPD patients using a TRAP activity assay. MPI lysates were diluted 1:1 and COPD tissue lysates 1:20 with acetate buffer and incubated with increasing concentrations inhibitor, that were prepared from freshly made stock solutions (10 mM in DMSO) and diluted with acetate buffer. Lysates were incubated at 37° C for 30 min in the presence of PNPP solution (1:1 ratio). 1M NaOH was added to stop the reaction and absorption was measured at 410 nm with 490 nm as a reference value.\nThe inhibitory effects of gold compounds were calculated as the ratio of absorbance between the treated and untreated wells. The IC50 values were calculated using nonlinear curve fitting with a variable slope in Graphpad Prism 6 (Graphpad Software, la Jolla, USA). An average IC50 of three independent experiments was calculated.\nThe effect of AubipyOMe and NaAuCl4 on cell growth was assessed with a classical MTT assay.\nRAW264.7 macrophages were seeded in 96-well plates at a concentration of 10,000 cells/well and grown for 24h in complete medium. Compound dilutions were prepared in complete medium from a freshly prepared stock solution (10 mM in DMSO) and added to the wells (200 μl) to obtain a final concentration (0 to 100 μM). […] The optical density of each well was quantified in quadruplicate at 540 nm, using a multi-well plate reader, and the percentage of surviving cells was calculated from the ratio of absorbance between treated and untreated cells. The IC50 values were calculated using nonlinear curve fitting with a variable slope in Graphpad Prism 6 (Graphpad Software) An average"}, "RAW264.7 macrophages [2]": {"system": "RAW264.7 macrophages", "assay": "Transwell migration, collagen-coated membrane", "assay_type": "cell-based, mouse", "settings": "AubipyOMe 80 nM, with or without RANKL 200 ng/ml", "description": "Migration of RAW264.7 macrophages was assessed using a transwell-culturing system with inserts (Sigma-Aldrich) coated with osteopontin (10 μg/ml, R&D). Bovine collagen-coated inserts (10 μg/ml, Advanced Biometrix, Carlsbad, USA) were used as matrix control. Cells were incubated with or without RANKL (200 ng/ml) for 72 hours to induce TRAP activity or not[75], in the presence or absence of AubipyOMe (80 nM) in quadruplicate. The previously described TRAP inhibitor 5-PNA (100 μM) was used as selective positive control for TRAP inhibition[15],[23]. The number of cells migrated to the lower well, including dead cells, was calculated relative to control cells and individual experiments were done at least six times. […]\nTranswell experiment to assess macrophage migration\nMigration of RAW264.7 macrophages was assessed using a transwell-culturing system with inserts (Sigma-Aldrich) coated with osteopontin (10 µg/ml, R&D). Bovine collagen-coated inserts (Advanced Biometrix, Carlsbad, USA) were used as a matrix control. […] The number of cells migrated to the lower well, including dead cells, was calculated relative to control cells and individual experiments were done at least six times. […]"}, "other proteins": {"system": "other proteins", "design": "method as in PMID 20162197, PMID 21370912", "settings": "compared to TRAP isoforms; cited from earlier work"}}}
{"smiles": "COc1ccnc(-c2cc(OC)ccn2)c1.F[P-](F)(F)(F)(F)F.[Cl][Au+][Cl]", "note": "[AubipyOMe, [Au(4,4′-dimethoxy-2,2′-bipyridine)Cl2][PF6]]", "values": [{"measurement": "IC50", "setting": "RAW264.7 macrophages [1]; RAW264.7 macrophages, 72 h, n = 4, read-out: IC50 cytotoxicity", "result": "~35", "unit": "µM"}, {"measurement": "cytotoxic effects on RAW264.7 macrophages", "setting": "RAW264.7 macrophages [1]; at concentrations around the TRAP IC50 values", "result": "no cytotoxic effects"}, {"measurement": "migration through collagen-coated membrane", "setting": "RAW264.7 macrophages [2]", "result": "no effect"}, {"measurement": "inhibitory effects on other proteins", "setting": "other proteins", "result": "extremely moderate"}]}
